We go through 2 compounds from patent publication US20180142211A1, “METHODS OF MESENCHYMAL STEM CELL MOBILIZATION AND EXPANSION” (Biokine Therapeutics Ltd, priority 2015, published 2018).

The test system of one data set is white blood cells (WBC). Description: Phase I study: WBC mobilization to peripheral blood. The data set is classed as in vivo, human. The note with it: 4 hours post dose, baseline 6.31. The text has this: (§1) Mean CD34+ count at baseline was 5.81/μL.
For another data set, the system named is HSC (CD34+ cells). The data set can be described thus: Phase I study: mobilization of HSC (CD34+ cells). In kind it is in vivo, human.
Source text: as §1

Data set [1] has as its system Mesenchymal Stem Cells (MSCs). The data set can be described thus: Phase I study: MSC mobilization, MesenCult assay. The data set is classed as in vivo, human. The conditions noted are these: for MSC mobilization into peripheral blood, single agent: MesenCult. The procedure:
To evaluate the number of MSCs in the blood, a MesenCult assay was used at different time points following BL-8040 administration (0.75 mg/Kg FIGS. 1-2, or 1 mg/Kg FIGS. 3-4)) to healthy subjects-as described above.
White blood cells (WBCs) obtained from 100 μl blood, were plated in MesenCult medium (2 ml).
The number of MSCs colonies and MS cells were visually scored 15 days later, using a light microscope, and the frequency of MSC colonies and MSCs was calculated.

In the next data set the test system is HPC colony forming cells. Description: Phase I study: HPC colony forming cell mobilization. The data set is classed as in vivo, human. The note with it: 4-8 hr post injection.
Source text: as §1

Data set [2] deals with T cells, B cells and NK cells. The data set can be described thus: Phase I study: FACS analysis of lymphocyte mobilization. The data set is classed as in vivo, human.
Source text: as §1
A general note: Flow cytometry measures light scatter and fluorescence of single cells or particles in a stream.

The conditions of data set [3]: human, in vivo.
Description: To test the effect of BL-8040 (SEQ ID NO: 1) on mesenchymal stem cell mobilization a two-part study was performed. The first part of the study was randomized, double-blind, placebo-controlled dose escalation study. In each cohort, six volunteers were administrated twice (altogether) on day one and two with BL-8040 (First cohort 0.5 mg/kg, Second cohort 0.75 mg/kg and Third 1.0 mg/kg) and 2 were administrated with placebo. […] BL-8040's safety, tolerability and pharmacokinetic profile were also evaluated on this part.
Data set [4] addresses T1, CXCR4 (Homo sapiens, UniProt P61073). The conditions noted are these: cited from earlier work.
Target sequence in this assay (P61073 whole entry, species assumed): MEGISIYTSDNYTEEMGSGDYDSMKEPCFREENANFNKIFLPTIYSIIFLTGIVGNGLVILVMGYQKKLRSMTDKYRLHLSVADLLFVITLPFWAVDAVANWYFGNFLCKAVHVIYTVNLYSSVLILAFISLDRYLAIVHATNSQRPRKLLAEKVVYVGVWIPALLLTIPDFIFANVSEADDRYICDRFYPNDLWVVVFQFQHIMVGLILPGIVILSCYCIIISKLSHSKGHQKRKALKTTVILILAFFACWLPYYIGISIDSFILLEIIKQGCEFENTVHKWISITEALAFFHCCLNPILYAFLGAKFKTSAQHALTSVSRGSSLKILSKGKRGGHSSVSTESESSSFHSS
Data set [5] concerns long term repopulating cells. The conditions noted are these: mice, single injection; cited from earlier work.
A further data set relates to CD34 (+) cells. The conditions noted are these: MM patients, combined with G-CSF, single administration; cited from earlier work.
Data set [6] addresses T1, CXCR4. The data set can be described thus: Phase I study: receptor occupancy and pharmacodynamic effect. In kind it is in vivo. More on the design: endogenous in cells; host or cells: peripheral blood cells (CD34+, lymphocyte, mononuclear populations) of healthy volunteers. The conditions noted are these: post dosing.
Source text: as §1
Target sequence in this assay (P61073 whole entry): as the sequence (P61073 whole entry, species assumed) above

Another data set deals with MSCs. The note with it: without cytokines such as PDGF, VEGF, IGF-1 or SCF; cited from earlier work.

pKd: −log10 of the molar value. Entries after “also recorded” stand apart in the source; their conditions may differ.

“4F-benzoyl-Arg-Arg-Nal-Cys-Tyr-Cit-Lys-DLys-Pro-Tyr-Arg-Cit-Cys-Arg-NH2 [BL-8040]”: the “mean WBC count” value in the data set on white blood cells (WBC) was 2.968e+10 L⁻¹. Moreover, the “mean CD34 count” value turned out to be 38 µL⁻¹ in the data set with HSC (CD34+ cells) (0.5 mg/kg, 4 hour post the second dose, placebo 9); 37 µL⁻¹ in the data set with HSC (CD34+ cells) (0.5 mg/kg, four hours post dose, baseline 5.81/μL, placebo 8); 46 µL⁻¹ in the data set with HSC (CD34+ cells) (0.75 mg/kg, 4 hour post the second dose, placebo 9); 31 µL⁻¹ in the data set on HSC (CD34+ cells) (0.75 mg/kg, four hours post dose, baseline 5.81/μL, placebo 8); 58 µL⁻¹ with HSC (CD34+ cells) (1 mg/kg, 4 hour post the second dose, placebo 9); 35 µL⁻¹ in the data set on HSC (CD34+ cells) (1 mg/kg, four hours post dose, baseline 5.81/μL, placebo 8). Besides, the “CD34+ count in all subjects” value in the data set with HSC (CD34+ cells) (1 mg/kg, 4 hours post single administration, all subjects) was “more than 20 CD34+/μL”. Besides, the “mobilization of HSC (CD34+ cells)” value in the data set on HSC (CD34+ cells) (across all doses tested) is “Dramatic mobilization”. Besides, the “mobilization of Mesenchymal Stem Cells (MSCs)” value in data set [1] (4-8 hr post injection) is “rapid mobilization of MSCs”. Also, the “MSC mobilization into peripheral blood, single agent” value in data set [1] (Cohort 2 (0.75 mg/Kg), 15 days culture (FIGS. 1-2), 0.75 mg/kg) was “mobilizes mesenchymal stem cells (MSCs) into peripheral blood (PB); also recorded: mobilizes MSCs into the PB”; in data set [1] (Cohort 3 (1 mg/Kg), 15 days culture (FIGS. 3-4), 1 mg/kg) it was “mobilizes mesenchymal stem cells (MSCs) into peripheral blood (PB); also recorded: mobilizes MSCs into the PB”. Further, the “mobilization of HPC colony forming cells” value in the data set with HPC colony forming cells is “rapid mobilization”. Moreover, in data set [2], the “mobilization of T cells, B cells and NK cells” value is “substantial mobilization”. Further, in data set [3], the appearance in plasma entry is given as “rapid”. Besides, the half-life entry in data set [3] is on record as “short”. Further, the “off-rate of the receptor” value on CXCR4 [4] is on record as “slow off-rate”. The pKd at CXCR4 [4] (high affinity, read-out: affinity of binding to CXCR4) is 8.70 to 9.00. Further, in [5], the “mobilization of long term repopulating cells for transplantation” value is “sufficient to mobilize enough long term repopulating cells for transplantation”. In the data set with CD34 (+) cells, the “stem cell mobilization (CD34 (+) cell collection in one aphaeresis procedure)” value is “efficient stem cell mobilizer”. The “duration of receptor occupancy and pharmacodynamics effect” value on CXCR4 [6] was not below 24 h.
With `c1cc(CN2CCCNCCNCCCNCC2)ccc1CN1CCCNCCNCCCNCC1` [AMD3100], in the data set with MSCs, the “MSC mobilization by the agent alone” value was “not sufficient to mobilize MSCs”.
